US20240239752A1, “BICYCLIC HETEROAROMATIC INHIBITORS OF KLK5” (BioCryst Pharmaceuticals, Inc., priority 2021, published 2024)

Target: T1, recombinant human KLK5 (Homo sapiens, UniProt Q9Y337)
T1 construct: purchased Novoprotein or R&D Systems C415 or 1108-SE
T1 sequence (Q9Y337 23-293): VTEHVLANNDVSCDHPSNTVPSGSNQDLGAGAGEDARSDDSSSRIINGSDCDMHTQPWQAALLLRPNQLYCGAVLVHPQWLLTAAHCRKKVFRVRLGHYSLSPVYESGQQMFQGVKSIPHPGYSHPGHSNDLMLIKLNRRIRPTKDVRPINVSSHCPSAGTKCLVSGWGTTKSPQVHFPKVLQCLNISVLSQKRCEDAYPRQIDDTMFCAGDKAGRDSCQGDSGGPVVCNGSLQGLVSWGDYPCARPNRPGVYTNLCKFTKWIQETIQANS
Experiment: Kallikrein (KLK) 5 enzymatic assay (Boc-VPR-AMC fluorogenic substrate)
Type: biochemical
Details: recombinant human KLK5 0.1 μg/well, Boc-VPR-AMC 100 μM, pH 7.5, room temperature, 1% DMSO; tested a minimum of three times
How it was run: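 Fluorogenic rate assay at pH 7.5 (0.1 M NaH2PO4, 1% DMSO, room temperature), run at least three times per compound. Compound was premixed with 0.1 μg/well recombinant human KLK5 before adding 100 μM Boc-VPR-AMC; AMC release was read at ex 380/em 460 nm, and IC50 derived from inhibition of rate vs DMSO control.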

Row | IC50 [µM] | Structure (SMILES)
1 | > 10 | CC(C)n1nc(COc2ccccc2CC(=O)O)c2cc(-c3ccc4ccc(N)nc4c3)ccc21 [Compound 50c, 2-(2-((5-(2-aminoquinolin-7-yl)-1-isopropyl-1H-indazol-3-yl)methoxy)phenyl)acetic acid]
2 | > 10 | CC(C)n1nc(COc2ccccc2CC(=O)O)c2cc(-c3cccc(-c4cnc[nH]4)c3)ccc21 [Compound 51c, 2-(2-((5-(3-(1H-imidazol-5-yl)phenyl)-1-isopropyl-1H-indazol-3-yl)methoxy)phenyl)acetic acid]
